Literature values in patent publication US20110123622A1, “OPHTHALMIC FORMULATION AND METHOD OF MANUFACTURE THEREOF” (Inotek Pharmaceuticals Corporation, priority 2009, published 2011).

System: human exhibiting elevated intraocular pressure as a result of OHT or POAG

O=[N+]([O-])OC[C@H]1O[C@@H](n2cnc3c(NC4CCCC4)ncnc32)[C@H](O)[C@@H]1O [Compound A, ((2R,3S,4R,5R)-5-(6-(cyclopentylamino)-9H-purin-9-yl)-3,4-dihydroxytetrahydrofuran-2-yl)methyl nitrate]
reduction in IOP, comparison of dose groups (350 mcg and 700 mcg treatment groups, HPβCD formulation): greatest reduction in IOP | IOP upon a single application (formulated 1:20 wt/wt in HPβCD, 2.5 to 700 micrograms per eye): statistically significant dose-related decrement in IOP
